# Assay results reported in patent US9908868B2, “Isoindolinone compounds as GPR119 modulators for the treatment of diabetes, obesity, dyslipidemia and related disorders” (SANOFI, priority 2014, dated 2018).
# Target: T1, human GPR119 (Homo sapiens, UniProt Q8TDV5)
# T1 construct: expressed in transfected cells
# T1 sequence (Q8TDV5 1-335): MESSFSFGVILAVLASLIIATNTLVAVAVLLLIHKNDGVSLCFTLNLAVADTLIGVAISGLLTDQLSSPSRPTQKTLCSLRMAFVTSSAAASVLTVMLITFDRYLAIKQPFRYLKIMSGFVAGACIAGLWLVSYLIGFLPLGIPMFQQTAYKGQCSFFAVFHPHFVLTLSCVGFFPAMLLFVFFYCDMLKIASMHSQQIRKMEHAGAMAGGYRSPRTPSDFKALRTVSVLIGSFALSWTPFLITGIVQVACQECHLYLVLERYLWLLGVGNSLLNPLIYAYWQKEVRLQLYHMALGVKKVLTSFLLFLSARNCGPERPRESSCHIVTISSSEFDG
# Assay: Functional cellular assay measuring GPR119-mediated cAMP release (HTRF) in HEK-293 cells stably expressing recombinant human GPR119
# Assay type: cell-based
# Details: cAMP response, cell line expressing human GPR119, 30 minutes at room temperature
# Outline: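 HEK-293 cells stably expressing recombinant human GPR119, suspended at 400000 cells/mL in HBSS/20 mM HEPES/0.1% BSA/2 mM IBMX, exposed to compound for 30 minutes at room temperature. cAMP detected by HTRF (665/620 nm ratio) after 1 h with reagents in lysis buffer. EC50 taken as concentration giving 50% of maximal activation.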
row,Structure (SMILES),EC50 [nM]
1,"O=C(CN1Cc2ccc(N3CC[C@@H](Oc4ccc(Oc5ccc(F)cc5)nc4)C3=O)cc2C1=O)N1CCC(O)CC1 [Example 4-11, 6-[(3R)-3-[[6-(4-fluorophenoxy)-3-pyridyl]oxy]-2-oxo-pyrrolidin-1-yl]-2-[2-(4-hydroxy-1-piperidyl)-2-oxo-ethyl]isoindolin-1-one]",218
2,"CC(C(=O)O)N1Cc2ccc(N3CC[C@@H](Oc4ccc(OCC5CC5)nc4)C3=O)cc2C1=O (stereo partly drawn) [Example 1-02, 2-[6-[(3R)-3-[[6-(cyclopropylmethoxy)-3-pyridyl]oxy]-2-oxo-pyrrolidin-1-yl]-1-oxo-isoindolin-2-yl]propanoic acid]",2030
3,"CS(=O)(=O)CN1Cc2ccc(N3CC[C@@H](Oc4ccc(Oc5ccc(F)cc5)nc4)C3=O)cc2C1=O [Example 1-53, 6-[(3R)-3-[[6-(4-fluorophenoxy)-3-pyridyl]oxy]-2-oxo-pyrrolidin-1-yl]-2-(methylsulfonylmethyl)isoindolin-1-one]",98
4,"CCOc1ccc(O[C@@H]2CCN(c3cc(F)c4c(c3)C(=O)N(CC(=O)NCCOC)C4)C2=O)cn1 [Example 4-18, 2-[6-[(3R)-3-[(6-ethoxy-3-pyridyl)oxy]-2-oxo-pyrrolidin-1-yl]-4-fluoro-1-oxo-isoindolin-2-yl]-N-(2-methoxyethyl)acetamide]",381
5,"CC(C)Sc1ccc(O[C@@H]2CCN(c3ccc4c(c3)C(=O)N(CC(=O)N(C)C)C4)C2=O)cn1 [Example 1-09, 2-[6-[(3R)-3-[(6-isopropylsulfanyl-3-pyridyl)oxy]-2-oxo-pyrrolidin-1-yl]-1-oxo-isoindolin-2-yl]-N,N-dimethyl-acetamide]",163
6,"CCOc1ccc(O[C@@H]2CCN(c3cc(F)c4c(c3)C(=O)N(CC(=O)N(C)C)C4)C2=O)cn1 [Example 4-21, 2-[6-[(3R)-3-[(6-ethoxy-3-pyridyl)oxy]-2-oxo-pyrrolidin-1-yl]-4-fluoro-1-oxo-isoindolin-2-yl]-N,N-dimethyl-acetamide]",222
7,"O=C(CN1Cc2ccc(N3CC[C@@H](Oc4ccc(OCC5CC5)nc4)C3=O)cc2C1=O)N(CCO)CCO [Example 4-33, 2-[6-[(3R)-3-[[6-(cyclopropylmethoxy)-3-pyridyl]oxy]-2-oxo-pyrrolidin-1-yl]-1-oxo-isoindolin-2-yl]-N,N-bis(2-hydroxyethyl)acetamide]",598
8,"CC(=O)N1CCN(c2ccc(O[C@@H]3CCN(c4ccc5c(c4)C(=O)N(CC(=O)N(C)C)C5)C3=O)cc2)CC1 [Example 2-26, 2-[6-[(3R)-3-[4-(4-acetylpiperazin-1-yl)phenoxy]-2-oxo-pyrrolidin-1-yl]-1-oxo-isoindolin-2-yl]-N,N-dimethyl-acetamide]",1060
9,"O=C(CN1Cc2ccc(N3CC[C@@H](Oc4ccc(Oc5ccc(F)cc5)nc4)C3=O)cc2C1=O)N1CC(O)C1 [Example 4-10, 6-[(3R)-3-[[6-(4-fluorophenoxy)-3-pyridyl]oxy]-2-oxo-pyrrolidin-1-yl]-2-[2-(3-hydroxyazetidin-1-yl)-2-oxo-ethyl]isoindolin-1-one]",208
10,"CN(C)C(=O)CN1Cc2ncc(N3CC[C@@H](Oc4ccc(C(=O)CC5CC5)cc4)C3=O)cc2C1=O [Example 1-16, 2-[3-[(3R)-3-[4-(2-cyclopropylacetyl)phenoxy]-2-oxo-pyrrolidin-1-yl]-5-oxo-7H-pyrrolo[3,4-b]pyridin-6-yl]-N,N-dimethyl-acetamide]",360
11,"CN(C)C(=O)CC1c2ccc(N3CC[C@@H](Oc4ccc(OCC5CC5)nc4)C3=O)cc2C(=O)N1C (stereo partly drawn) [Example 1-07, 2-[5-[(3R)-3-[[6-(cyclopropylmethoxy)-3-pyridyl]oxy]-2-oxo-pyrrolidin-1-yl]-2-methyl-3-oxo-isoindolin-1-yl]-N,N-dimethyl-acetamide]",1900
12,"CN(C)C(=O)CN1Cc2ccc(N3CC[C@@H](Oc4ccc(O[C@H]5C[C@@H]6C[C@@H]6C5)nc4)C3=O)cc2C1=O [Example 2-03, 2-[6-[(3R)-3-[[6-[[(1S,5R)-3-bicyclo[3.1.0]hexanyl]oxy]-3-pyridyl]oxy]-2-oxo-pyrrolidin-1-yl]-1-oxo-isoindolin-2-yl]-N,N-dimethyl-acetamide]",54
13,"NC(=O)CN1Cc2ccc(N3CC[C@@H](Oc4ccc(C(=O)C5CC5)nc4)C3=O)cc2C1=O [Example 2-52, 2-[6-[(3R)-3-[[6-(cyclopropanecarbonyl)-3-pyridyl]oxy]-2-oxo-pyrrolidin-1-yl]-1-oxo-isoindolin-2-yl]acetamide]",207
14,"CN(C)C(=O)CN1Cc2ncc(N3CC[C@@H](Oc4ccc(OCC(F)(F)F)nc4)C3=O)cc2C1=O [Example 1-49, N,N-dimethyl-2-[5-oxo-3-[(3R)-2-oxo-3-[[6-(2,2,2-trifluoroethoxy)-3-pyridyl]oxy]pyrrolidin-1-yl]-7H-pyrrolo[3,4-b]pyridin-6-yl]acetamide]",106
15,"O=C1c2cc(N3CC[C@@H](Oc4ccc(OCCC5CC5)nc4)C3=O)cc(F)c2CN1CCO [Example 1-36, 6-[(3R)-3-[[6-(2-cyclopropylethoxy)-3-pyridyl]oxy]-2-oxo-pyrrolidin-1-yl]-4-fluoro-2-(2-hydroxyethyl)isoindolin-1-one]",142
16,"CN(C)C(=O)CN1Cc2ccc(N3CC[C@@H](Oc4ccc(S(F)(F)(F)(F)F)cc4)C3=O)cc2C1=O [Example 2-27, N,N-dimethyl-2-[1-oxo-6-[(3R)-2-oxo-3-[4-(pentafluoro-λ{6}-sulfanyl)phenoxy]pyrrolidin-1-yl]isoindolin-2-yl]acetamide]",160
17,"CCCC(=O)c1ccc(O[C@@H]2CCN(c3ccc4c(c3)C(=O)N(CC(=O)N(C)C)C4)C2=O)cc1 [Example 2-13, 2-[6-[(3R)-3-(4-butanoylphenoxy)-2-oxo-pyrrolidin-1-yl]-1-oxo-isoindolin-2-yl]-N,N-dimethyl-acetamide]",75
18,"CCCCC(=O)c1ccc(O[C@@H]2CCN(c3ccc4c(c3)C(=O)N(CC(N)=O)C4)C2=O)cc1 [Example 2-54, 2-[1-oxo-6-[(3R)-2-oxo-3-(4-pentanoylphenoxy)pyrrolidin-1-yl]isoindolin-2-yl]acetamide]",38
19,"CN(CCO)C(=O)CN1Cc2ccc(N3CC[C@@H](Oc4ccc(OCC5CC5)nc4)C3=O)cc2C1=O [Example 4-06, 2-[6-[(3R)-3-[[6-(cyclopropylmethoxy)-3-pyridyl]oxy]-2-oxo-pyrrolidin-1-yl]-1-oxo-isoindolin-2-yl]-N-(2-hydroxyethyl)-N-methyl-acetamide]",281
20,"NC(=O)CN1Cc2ccc(N3CC[C@@H](Oc4ccc(C(=O)CCC5CC5)nc4)C3=O)cc2C1=O [Example 2-56, 2-[6-[(3R)-3-[[6-(3-cyclopropylpropanoyl)-3-pyridyl]oxy]-2-oxo-pyrrolidin-1-yl]-1-oxo-isoindolin-2-yl]acetamide]",34
21,"C[S+]([O-])CN1Cc2c(F)cc(N3CC[C@@H](Oc4ccc(OCC5CC5)nc4)C3=O)cc2C1=O (stereo partly drawn) [Example 1-19, 6-[(3R)-3-[[6-(cyclopropylmethoxy)-3-pyridyl]oxy]-2-oxo-pyrrolidin-1-yl]-4-fluoro-2-(methylsulfinylmethyl)isoindolin-1-one]",71
22,"CN(C)C(=O)CN1Cc2ccc(N3CC[C@@H](Oc4cnc(OCC5CC5)c(F)c4)C3=O)cc2C1=O [Example 2-06, 2-[6-[(3R)-3-[[6-(cyclopropylmethoxy)-5-fluoro-3-pyridyl]oxy]-2-oxo-pyrrolidin-1-yl]-1-oxo-isoindolin-2-yl]-N,N-dimethyl-acetamide]",82
23,"Cc1noc(COc2ccc(O[C@@H]3CCN(c4ccc5c(c4)C(=O)N(CC(=O)N(C)C)C5)C3=O)cc2)n1 [Example 2-43, N,N-dimethyl-2-[6-[(3R)-3-[4-[(3-methyl-1,2,4-oxadiazol-5-yl)methoxy]phenoxy]-2-oxo-pyrrolidin-1-yl]-1-oxo-isoindolin-2-yl]acetamide]",1500
24,"CN(C)C(=O)CN1Cc2ccc(N3CC[C@@H](Oc4ccc(C(=O)CC5CC5)cc4)C3=O)cc2C1=O [Example 2-21, 2-[6-[(3R)-3-[4-(2-cyclopropylacetyl)phenoxy]-2-oxo-pyrrolidin-1-yl]-1-oxo-isoindolin-2-yl]-N,N-dimethyl-acetamide]",72
25,"O=C(CN1Cc2ccc(N3CC[C@@H](Oc4ccc(OCC5CC5)nc4)C3=O)cc2C1=O)NC[C@@H](O)CO [Example 4-35, 2-[6-[(3R)-3-[[6-(cyclopropylmethoxy)-3-pyridyl]oxy]-2-oxo-pyrrolidin-1-yl]-1-oxo-isoindolin-2-yl]-N-[(2R)-2,3-dihydroxypropyl]acetamide]",556
26,"CC1(C(=O)c2ccc(O[C@@H]3CCN(c4ccc5c(c4)C(=O)N(CC(N)=O)C5)C3=O)cn2)CC1 [Example 2-49, 2-[6-[(3R)-3-[[6-(1-methylcyclopropanecarbonyl)-3-pyridyl]oxy]-2-oxo-pyrrolidin-1-yl]-1-oxo-isoindolin-2-yl]acetamide]",424
27,"O=C(O)CN1Cc2c(F)cc(N3CC[C@@H](Oc4ccc(OCCC5CC5)nc4)C3=O)cc2C1=O [Example 3-03, 2-[6-[(3R)-3-[[6-(2-cyclopropylethoxy)-3-pyridyl]oxy]-2-oxo-pyrrolidin-1-yl]-4-fluoro-1-oxo-isoindolin-2-yl]acetic acid]",87
28,"CN(C)C(=O)CN1Cc2ccc(N3CC[C@@H](Oc4ccc(-c5cnco5)cc4)C3=O)cc2C1=O [Example 2-37, N,N-dimethyl-2-[6-[(3R)-3-(4-oxazol-5-ylphenoxy)-2-oxo-pyrrolidin-1-yl]-1-oxo-isoindolin-2-yl]acetamide]",862
